# Reference: patent US9796700B2 (Celgene CAR LLC, priority 2013, dated 2017)
# Target: Erk1 (Homo sapiens (Human), UniProt P27361)
# Experiment: Protein Mass Modification Assay (intact protein MALDI)
# Assay type: binding
# Method in brief: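 Human Erk1 was incubated 60 min at room temperature with a 10-fold molar excess of compound, then analysed as intact protein by MALDI with sinapinic acid matrix. The centroid mass shift versus untreated protein was divided by compound molecular weight to give percent modified protein.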
# Erk1, sequence (P27361 whole entry, looked up): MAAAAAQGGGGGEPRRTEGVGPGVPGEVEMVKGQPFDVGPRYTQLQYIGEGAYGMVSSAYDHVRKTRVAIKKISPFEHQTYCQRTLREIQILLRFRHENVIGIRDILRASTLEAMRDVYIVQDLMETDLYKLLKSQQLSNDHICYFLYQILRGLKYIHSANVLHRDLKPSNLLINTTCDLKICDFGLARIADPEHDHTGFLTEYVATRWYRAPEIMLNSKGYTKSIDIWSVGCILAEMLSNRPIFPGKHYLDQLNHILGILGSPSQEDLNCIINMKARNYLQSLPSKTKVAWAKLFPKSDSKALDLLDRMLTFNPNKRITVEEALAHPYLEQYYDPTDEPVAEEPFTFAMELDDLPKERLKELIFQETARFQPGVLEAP
row,Structure (SMILES),ERK1 Mass Mod (%)
1,"C=CC(=O)Nc1cc(F)ccc1Nc1nc(Nc2ccc(F)cc2OC)ncc1Cl [Compound I-213, N-(2-((5-chloro-2-((4-fluoro-2-methoxyphenyl)amino)pyrimidin-4-yl)amino)-5-fluorophenyl)acrylamide]",E (provided a mass modification of ≧70%)
2,"C=CC(=O)Nc1ccccc1Nc1nc(Nc2cc(C(N)=O)ccc2C(F)(F)F)ncc1Cl [Compound I-220, 3-((4-((2-acrylamidophenyl)amino)-5-chloropyrimidin-2-yl)amino)-4-(trifluoromethyl)benzamide]",E (key: E: provided a mass modification of ≧70%; F: provided a mass modification of 31-69%; G: proived a mass modification ≦30%)
3,"C=CC(=O)Nc1ccccc1Nc1nc(Nc2cc(C(N)=O)ccc2C)ncc1C [Compound I-224, 3-(4-(2-acrylamidophenylamino)-5-methylpyrimidin-2-ylamino)-4-methyl benzamide]",E (provided a mass modification of ≧70%)
4,"C=CC(=O)Nc1ccccc1Nc1nc(Nc2cc(C(=O)O)ccc2C)ncc1Cl [Compound I-225, 3-((4-((2-acrylamidophenyl)amino)-5-chloropyrimidin-2-yl)amino)-4-methylbenzoic acid]",F (provided a mass modification of 31-69%)
5,"C#CC(=O)NCCCOc1cc(C)c(Nc2ncc(Cl)c(Nc3ccccc3NC(=O)C=C)n2)cc1C(N)=O [Compound I-227, 5-((4-((2-acrylamidophenyl)amino)-5-chloropyrimidin-2-yl)amino)-4-methyl-2-(3-propiolamidopropoxy)benzamide]",E (provided a mass modification of ≧70%)
6,"C=CC(=O)Nc1cc(C)ccc1Nc1nc(Nc2ccnc(Cl)c2)ncc1Cl [Compound I-230, N-(2-((5-chloro-2-((2-chloropyridin-4-yl)amino)pyrimidin-4-yl)amino)-5-methylphenyl)acrylamide]",E (provided a mass modification of ≧70%)
7,"C=CC(=O)Nc1ccccc1Nc1nc(Nc2cc(C(=O)NC)c(F)cc2C)ncc1Cl [Compound I-231, 5-((4-((2-acrylamidophenyl)amino)-5-chloropyrimidin-2-yl)amino)-2-fluoro-N,4-dimethylbenzamide]",E (provided a mass modification of ≧70%)
8,"C=CC(=O)Nc1cc(C)ccc1Nc1nc(Nc2cc(C(=O)NCCO)c(F)cc2C)ncc1Cl [Compound I-234, 5-((4-((2-acrylamido-4-methylphenyl)amino)-5-chloropyrimidin-2-yl)amino)-2-fluoro-N-(2-hydroxyethyl)-4-methylbenzamide]",F (provided a mass modification of 31-69%)
9,"C=CC(=O)Nc1cc(C)ccc1Nc1nc(Nc2cc(C(C)=O)ccc2C)ncc1Cl [Compound I-239, N-(2-((2-((5-acetyl-2-methylphenyl)amino)-5-chloropyrimidin-4-yl)amino)-5-methylphenyl)acrylamide]",E (key: E: provided a mass modification of ≧70%; F: provided a mass modification of 31-69%; G: proived a mass modification ≦30%)
10,"C=CC(=O)Nc1cc(OC)ccc1Nc1nc(Nc2cc(Cl)nc(OC)c2)ncc1Cl [Compound I-245, N-(2-((5-chloro-2-((2-chloro-6-methoxypyridin-4-yl)amino)pyrimidin-4-yl)amino)-5-methoxyphenyl)acrylamide]",F (provided a mass modification of 31-69%)
11,"C=CC(=O)Nc1ccccc1Nc1nc(Nc2ccc(N3CCOCC3)cc2OC)ncc1C(N)=O [Compound I-249, 4-((2-acrylamidophenyl)amino)-2-((2-methoxy-4-morpholinophenyl)amino)pyrimidine-5-carboxamide]",F (provided a mass modification of 31-69%)
12,"C=CC(=O)Nc1ccccc1Nc1nc(Nc2ccc3c(c2OC)CCCC(=O)N3CCN2CCOCC2)ncc1C(N)=O [Compound I-252, 4-((2-acrylamidophenyl)amino)-2-((6-methoxy-1-(2-morpholinoethyl)-2-oxo-2,3,4,5-tetrahydro-1H-benzo[b]azepin-7-yl)amino)pyrimidine-5-carboxamide]",F (provided a mass modification of 31-69%)
13,"C=CC(=O)Nc1ccccc1Nc1nc(Nc2ccc3c(c2OC)CCCC(=O)N3CCCN2CCOCC2)ncc1C(N)=O [Compound I-253, 4-((2-acrylamidophenyl)amino)-2-((6-methoxy-1-(3-morpholinopropyl)-2-oxo-2,3,4,5-tetrahydro-1H-benzo[b]azepin-7-yl)amino)pyrimidine-5-carboxamide]",F (provided a mass modification of 31-69%)

# Results, then the compound that gave them:
row,ERK1 Mass Mod (%),Structure (SMILES)
1,E (provided a mass modification of ≧70%),"C=CC(=O)Nc1ccccc1Nc1nc(Nc2cc(C(=O)NCCO)c(F)cc2C)ncc1Cl [Compound I-232, 5-((4-((2-acrylamidophenyl)amino)-5-chloropyrimidin-2-yl)amino)-2-fluoro-N-(2-hydroxyethyl)-4-methylbenzamide]"
2,E (provided a mass modification of ≧70%),"C=CC(=O)Nc1cc(C)ccc1Nc1nc(Nc2cc(C(=O)NC)c(F)cc2C)ncc1Cl [Compound I-233, 5-((4-((2-acrylamido-4-methylphenyl)amino)-5-chloropyrimidin-2-yl)amino)-2-fluoro-N,4-dimethylbenzamide]"
3,E (provided a mass modification of ≧70%),"C=CC(=O)Nc1cc(C)ccc1Nc1nc(Nc2ccnc(OC)c2)ncc1Cl [Compound I-235, N-(2-((5-chloro-2-((2-methoxypyridin-4-yl)amino)pyrimidin-4-yl)amino)-5-methylphenyl)acrylamide]"
4,E (provided a mass modification of ≧70%),"C=CC(=O)Nc1cc(C)ccc1Nc1nc(Nc2ccncc2C)ncc1Cl [Compound I-236, N-(2-((5-chloro-2-((3-methylpyridin-4-yl)amino)pyrimidin-4-yl)amino)-5-methylphenyl)acrylamide]"
5,E (provided a mass modification of ≧70%),"C=CC(=O)Nc1cc(C)ccc1Nc1nc(Nc2cc(C(N)=O)ccn2)ncc1Cl [Compound I-238, 2-((4-((2-acrylamido-4-methylphenyl)amino)-5-chloropyrimidin-2-yl)amino)isonicotinamide]"
6,E (provided a mass modification of ≧70%),"C=CC(=O)Nc1ccccc1Nc1nc(Nc2cc(Cl)nc(OC)c2)ncc1Cl [Compound I-246, N-(2-((5-chloro-2-((2-chloro-6-methoxypyridin-4-yl)amino)pyrimidin-4-yl)amino)phenyl)acrylamide]"
7,G (proived a mass modification ≦30%),"C=CC(=O)Nc1ccccc1Nc1nc(Nc2ccc(N3CCOCC3)cc2OC)ncc1C(=O)NC [Compound I-250, 4-(2-acrylamidophenylamino)-2-(2-methoxy-4-morpholinophenylamino)-N-methylpyrimidine-5-carboxamide]"
8,G (proived a mass modification ≦30%),"C=CC(=O)Nc1ccccc1Nc1nc(Nc2ccc(N3CCOCC3)cc2OC)ncc1C(=O)NCC [Compound I-251, 4-((2-acrylamidophenyl)amino)-N-ethyl-2-((2-methoxy-4-morpholinophenyl)amino)pyrimidine-5-carboxamide]"
9,E (provided a mass modification of ≧70%),"C=CC(=O)Nc1ccccc1Nc1nc(Nc2ccc(OCCCN3CCOCC3)cc2OC)ncc1C(N)=O [Compound I-254, 4-((2-acrylamidophenyl)amino)-2-((2-methoxy-4-(3-morpholinopropoxy)phenyl)amino)pyrimidine-5-carboxamide]"
10,E (provided a mass modification of ≧70%),"C=CC(=O)Nc1ccccc1Oc1nc(Nc2ccc(N3CCC[C@@H]3CO)cc2OC)ncc1C(N)=O [Compound I-263, (R)-4-(2-acrylamidophenoxy)-2-((4-(2-(hydroxymethyl)pyrrolidin-1-yl)-2-methoxyphenyl)amino)pyrimidine-5-carboxamide]"
11,E (provided a mass modification of ≧70%),"C=CC(=O)Nc1ccccc1Oc1nc(Nc2ccc(N3CCC[C@@H]3C(N)=O)cc2OC)ncc1C(N)=O [Compound I-266, (R)-4-(2-acrylamidophenoxy)-2-((4-(2-carbamoylpyrrolidin-1-yl)-2-methoxyphenyl)amino)pyrimidine-5-carboxamide]"
12,E (provided a mass modification of ≧70%),"C=CC(=O)Nc1ccccc1Oc1nc(NC(C)(C)C)ncc1C(N)=O [Compound I-267, 4-(2-acrylamidophenoxy)-2-(tert-butylamino)pyrimidine-5-carboxamide]"
13,G (proived a mass modification ≦30%),"C=CC(=O)Nc1ccccc1Nc1nc(Nc2ccc(N3CCOCC3)cc2OC)ncc1C(C)=O [Compound I-273, N-(2-(5-acetyl-2-(2-methoxy-4-morpholinophenylamino)pyrimidin-4-ylamino)phenyl) acrylamide]"
14,G (proived a mass modification ≦30%),"C=CC(=O)Nc1ccccc1Nc1nc(Nc2ccc(N3CCOCC3)cc2OC)ncc1/C(C)=N/OC [Compound I-274, (E)-N-(2-((2-((2-methoxy-4-morpholinophenyl)amino)-5-(1-(methoxyimino)ethyl)pyrimidin-4-yl)amino)phenyl)acrylamide]"
15,G (proived a mass modification ≦30%),"C=CC(=O)Nc1ccccc1Nc1nc(Nc2ccc(N3CCOCC3)cc2OC)ncc1/C(C)=N/O [Compound I-275, (E)-N-(2-((5-(1-(hydroxyimino)ethyl)-2-((2-methoxy-4-morpholinophenyl)amino)pyrimidin-4-yl)amino)phenyl)acrylamide]"
16,E (provided a mass modification of ≧70%),"C=CC(=O)Nc1ccccc1Nc1nc(Nc2cc(OC)nc(N3CCCCC3)c2)ncc1C(F)(F)F [Compound I-282, N-(2-((2-((2-Methoxy-6-(piperidin-1-yl)pyridin-4-yl)amino)-5-(trifluoromethyl)pyrimidin-4-yl)amino)phenyl)acrylamide]"
17,E (provided a mass modification of ≧70%),"C=CC(=O)Nc1ccccc1Nc1nc(Nc2cc(F)ccc2C)ncc1C(F)(F)F [Compound I-285, N-(2-((2-((5-Fluoro-2-methylphenyl)amino)-5-(trifluoromethyl)pyrimidin-4-yl)amino)phenyl)acrylamide]"
